Data as given in US20220287995A1, “COMPOSITIONS AND METHODS FOR INHIBITING BACTERIAL VIRULENCE AND FLIM-BASED DEVICE AND METHOD FOR ANTIBIOTIC SUSCEPTIBILITY TESTING” (THE REGENTS OF THE UNIVERSITY OF CALIFORNIA, priority 2019, published 2022).

Tests used:
[1] = test system: surface-attached P. aeruginosa; experiment: Image-based virulence (host killing) assay with amoeba host cells and calcein-AM; type: cell-based, Pseudomonas aeruginosa
Protocol: P. aeruginosa cells were assayed using an image-based virulence assay as described previously (12, 50). P. aeruginosa strains were cultured in PS:DB, diluted 1:100 into 60×15 mm plastic petri dishes (Corning, Corning, N.Y.), cultured for 4 to 6 hours by shaking at 100 rpm, and harvested. Planktonic cells were assayed by transferring 10 μL of culture from the petri dish to a new petri dish, mixing with an equal volume of D. discoideum that were grown to an OD600 of 0.2-0.5, and immobilizing by placing an agar pad on top of the mixture (FIG. 11C). Agar pads were made using Bacto agar at a concentration of 1%, DB buffer, and 1 μM calcein acetoxymethyl (AM) ester (Molecular Probes, Eugene, Oreg.), and were cut into 1.5×1.5 cm squares (12, 50). Surface-attached cells were assayed by aspirating planktonic cells from the culture, washing with DB buffer to remove planktonic cells, mixing with an equal volume of D. discoideum, and immobilizing by placing an agar pad on top of the mixture (FIG. 11C) (50). The immobilized planktonic or surface-attached P. aeruginosa and D. discoideum were incubated at room temperature for 1 hour and imaged using fluorescence microscopy. The host killing index (12, 50) was computed as the average ratio of calcein-AM fluorescence to cell area in individual amoeba cells for 30 to 200 cells in each experiment.
Fluorescence microscopy to assess calcein-AM fluorescence was performed using a Nikon Eclipse Ti-E microscope (Nikon, Melville, N.Y.) containing Nikon 10× Plan Fluor Ph1 (0.3 NA) and 20×S Plan Fluor Nikon (0.45 NA) objectives, a Sola light engine (Lumencor, Beaverton, Oreg.), an LED-DA/FI/TX filter set (Semrock, Rochester, N.Y.) containing a 409/493/596 dichroic and 474/27 nm and 525/45 nm filters for excitation and emission, respectively, and a Hamamatsu Orca Flash 4.0 V2 camera (Hamamatsu, Bridgewater, N.J.). Images were acquired using Nikon NIS-Elements and analyzed using custom built software written previously (12) in Matlab (Mathworks, Natick, Mass.).
For experiments in which strains cultured in PS:DB were supplemented with individual carbon sources (FIG. 5A-D), pyruvic acid, citric acid, […], glycerol, or glucose was added to cultures at a final concentration of 0.2% at 3 hours following a 1:100 dilution from an overnight culture. Cultures were harvested after 1 additional hour of growth for measurements of fluorescence lifetime and NADH and NAD^+ concentrations. For experiments in which surface-attached strains that were cultured in PS:DB media were treated with antimycin A (FIG. 5E-F), 10 μM antimycin A dissolved in 0.1% ethanol, 0.1% ethanol, alone, or 10 μM antimycin A dissolved in 0.1% ethanol and 0.2% citric acid were added after 3 hours of growth following a 1:100 dilution from an overnight culture. Host killing was measured after an additional 1 to 3 hours of growth (total of 4 to 6 hours of growth).

E. coli [2] = experiment: FLIM-phasors of E. coli exposed to ampicillin (preliminary data, FIG. 13); type: cell-based
Text: The process of antibiotic susceptibility testing involves: isolation of bacteria from patient samples, immobilization of bacteria on agarose pads that contain different antibiotics supplied above the accepted minimum inhibitory concentration from the major classes commonly used in clinical settings including amoxicillin (penicillin-type), cephalexin (cephalosporin), erythromycin (macrolide), ciprofloxacin (fluoroquinolone), trimethoprim (sulfonamide), tetracycline, and gentamicin (aminoglycoside), imaging using the FLIM-AST device immediately and at 15-minute intervals for 2 hours to assess metabolic kinetics in response to antibiotics (FIG. 12).
The antibiotic susceptibility determination is performed by comparing FLIM-phasor profiles during the 2-hour incubation using software.
The FLIM microscope uses an 80 MHz ultrafast Ti:Sapphire Mai Tai laser (Spectra-physics, Santa Clara, Calif.) set at 740 nm for excitation. […] An H7422P-40 photomultiplier tube module (Hamamatsu, Bridgewater, N.J.) and A320 FastFLIM Box (ISS, Champaign, Ill.) were used to measure fluorescence lifetime. Image acquisition was controlled by SimFCS software (Laboratory for Fluorescence Dynamics, Irvine, Calif.).

P. aeruginosa = experiment: Fluorescence lifetime imaging microscopy (FLIM) phasor g-values of P. aeruginosa; type: cell-based, Pseudomonas aeruginosa; conditions: planktonic wild-type, 0.2% citrate as sole carbon source, 10 μM antimycin A in 0.1% ethanol vs 0.1% ethanol
Protocol: Fluorescence lifetime measurements were performed using a custom-built multiphoton microscope setup based on an Olympus FV1000 system and an Olympus IX81 microscope (Olympus, Waltham, Mass.) as described previously (68). The FLIM microscope uses an 80 MHz ultrafast Ti:Sapphire Mai Tai laser (Spectra-physics, Santa Clara, Calif.) set at 740 nm for mulitphoton excitation. The setup used a 690-nm SP dichroic-460/80 nm filter pair for separating emission and a PlanApo N Olympus oil immersion 60× (1.42 NA) objective (Olympus, Waltham, Mass.), which is capable of bacterial single-cell resolution imaging. An H7422P-40 photomultiplier tube module (Hamamatsu, Bridgewater, N.J.) and A320 FastFLIM Box (ISS, Champaign, Ill.) were used to measure fluorescence lifetime. Image acquisition was controlled by SimFCS software version 4 (64-bit) (Laboratory for Fluorescence Dynamics, Irvine, Calif.). Planktonic and surface-attached cells were isolated by modifying a protocol described previously (12, 50) (FIG. 11A).
Masks for bacterial cells were created through SimFCS using fluorescence intensity images and image intensity thresholding (FIG. 11B). Fluorescence lifetimes within the masked areas were transformed using
The microscope was calibrated before each session by setting the fluorescence lifetime obtained for 10 μM rhodamine 110 (Sigma, St. Louis, Mo.) to 4.0 ns. The laser power was set to 20% (<3 mW at back aperture of the microscope) using an acousto-optic modulator (AA Opto Electronic, Orsay, France). Sub-cellular fluorescence lifetimes (FIG. 1A) were collected using the 20× digital zoom mode at a rate of 1.7 sec/frame. All other P. aeruginosa measurements were performed using the 6× digital zoom mode using the same frame rate. For all measurements, 40 sequential frames were acquired to generate a single FLIM image.
P. aeruginosa strains were cultured overnight in PS:DB, diluted 1:100 into 35 mm glass-bottom dishes (MatTek Corporation, Ashland, Mass.) containing the same medium, and cultured for 4 to 6 hours (FIGS. 2E-F, 4A, 5A, and 8C). Alternatively, strains were cultured overnight in minimal medium A, diluted 1:100 into modified minimal media A with single carbon sources in culture tubes (FIGS. 6D-E and 7A-B, D) or glass-bottom dishes and cultured to an OD600 of 0.2 (FIG. 2E-F).
Planktonic cells were transferred to a new glass-bottom dish, immobilized using an agar pad, and imaged immediately (FIG. 11A). Agar pads were made using 1% Bacto agar (BD, Franklin Lakes, N.J.) and DB buffer (1, 2) or modified minimal medium A containing no carbon source for strains that were cultured in PS:DB or modified minimal medium, respectively, and were cut into 1.5×1.5 cm squares. Surface-attached cells were isolated by aspirating the supernatant from the dish, washing the dish to remove planktonic cells with DB buffer or modified minimal medium with no carbon source for strains cultured in PS:DB or modified minimal medium, respectively, and placing an agar pad on the dish surface, and were imaged immediately. Imaging was performed at room temperature.
For experiments involving FLIM measurements of the effects of antimycin A (FIG. 7D), P. aeruginosa were grown in culture tubes to saturation in modified minimal medium A containing 0.2% citrate, diluted 1:100 into the same medium in culture tubes, supplemented with 10 μM antimycin A (Sigma, St. Louis, Mo.) with 0.1% ethanol or with 0.1% ethanol, cultured to an OD600 of 0.2, and immediately measured for fluorescence lifetime. Fluorescence lifetimes for pyocyanin and pyoverdine (FIG. 7C) were measured using solutions of 6.2 mM pyocyanin (P0046, Sigma, St. Louis, Mo.) in DMSO and 5 mg/mL pyoverdine (P8124, Sigma, St. Louis, Mo.) in deionized water, respectively. For FIG. 6D, cells with fluorescence intensities below a value of 1.0, as reported by the SimFCS software, were excluded from the analysis. […]

E. coli [3] = experiment: FLIM-AST (FAST) antibiotic susceptibility, g value and residual ratio (RR); type: cell-based; conditions: tetracycline-sensitive vs tetracycline-resistant strain, 1 hour
Text: We performed FLIM measurements using our FLIM AST (FAST) device of antibiotic-sensitive and antibiotic-resistant E. coli lab strains MG1655 and MC4100, P. aeruginosa strain PA14, and S. aureus strain RN4220 using a broad range of commonly-used antibiotics including tetracycline, ampicillin, carbenicillin, chloramphenicol, spectinomycin, gentamycin, and kanamycin and using a range of concentrations for each drug. For each antibiotic and strain combination, the minimum inhibitory concentration for each antibiotic was determined through measurements of optical densities of cultures. We treated bacterial strains using a range of concentrations starting from below-MIC to above-MIC concentrations for 1 hour.
We computed g values using the FLIM phasor method. Consistent with our predictions, we observed a significant change in g value following treatment by many antibiotics.
To determine a quantitative assessment of resistance, we computed a metric for the degree of antibiotic susceptibility for a given bacterial strain. Our experiments determined that the residual ratio (RR) number was a good indicator of antibiotic resistance:
where the g value is obtained using the phasor method to fluorescence lifetime imaging microscopy (FLIM) and t0 and t1 are the measurement times at the beginning of the measurement or at the end of the experiment, respectively. […]

For O=P(O)(O)O [phosphoric acid, reference compound], the “host-killing activity (host killing index)” value ([1]; surface-attached wild-type P. aeruginosa in rich (PS:DB) medium, supplemented at 3 hours at 0.2%, assessed after 6 hours of growth, amoeba host cells) was “little impact on host-killing activity”.

CC1(C)S[C@@H]2[C@H](NC(=O)[C@H](N)c3ccccc3)C(=O)N2[C@H]1C(=O)O [ampicillin] was tested, and the “average values along the g-axis” value (E. coli [2]; E. coli exposed to ampicillin) was “vary with concentration” and the “phasor profile after drug is removed” value (E. coli [2]; E. coli, after ampicillin is removed) was “recovers to smaller values of g”.

With antimycin A [reference compound] the “shift in fluorescence lifetime g-value” (P. aeruginosa) was “shift towards higher g-value” and the “virulence induced earlier than untreated cells” value ([1]; surface-attached P. aeruginosa, 10 μM antimycin A in 0.1% ethanol added at 3 hours, host killing at 4.5 to 6 hours) was 30 min.

For CN(C)[C@@H]1C(O)=C(C(N)=O)C(=O)[C@@]2(O)C(O)=C3C(=O)c4c(O)cccc4[C@@](C)(O)[C@H]3C[C@@H]12 [tetracycline], the “concentration at which the increase in RR value begins” value (E. coli [3]) was 50 µg/mL.
